In patent US20150141435A1, “2-PYRIDONE ANTIMICROBIAL COMPOSITIONS” (Emergent BioSolutions, priority 2010, published 2015):
Converted amounts (≈) assume the structure as drawn. Where a name gives a salt, the structure may show the parent alone.

Legend:
Type in all cases: cell-based
A. baumannii ATCC 19606 = assay: MIC, CLSI broth microdilution (Table 2); conditions: Acinetobacter baumannii, ATCC19606; Gram negative; MHB, 37° C., 16-20 hours; read-out: MIC A. baumannii B. ATCC 19606
K. pneumoniae ATCC 33495 = assay: MIC, CLSI broth microdilution (Table 2); conditions: Klebsiella pneumoniae, ATCC33495; Gram negative; MHB, 37° C., 16-20 hours; read-out: MIC K. pneumoniae ATCC 33495
[1] = tested on: S. maltophilia ATCC 17677; assay: MIC, CLSI broth microdilution (Table 2); conditions: Stenotrophomonas maltophilia, ATCC17677; Gram negative; MHB, 37° C., 16-20 hours; read-out: MIC S. maltophilia ATCC 17677
H. influenzae ATCC 49247 = assay: MIC, CLSI broth microdilution (Table 2); conditions: Haemophilus influenzae, ATCC49247; Gram negative; MHB, 37° C., 16-20 hours; read-out: MIC H. influenzae ATCC 49247
[2] = tested on: S. aureus BAA-1720 (MRSA, FQ-R); assay: MIC, CLSI broth microdilution (Table 1); conditions: Staphylococcus aureus; Gram positive; MHB, 37° C., 16-20 hours; read-out: MIC S. aureus BAA-1720 (MRSA, FQ-R)
E. coli ATCC 25922 = assay: MIC, CLSI broth microdilution (Table 2); conditions: Escherichia coli, ATCC25922; Gram negative; MHB, 37° C., 16-20 hours; read-out: MIC E. coli ATCC 25922
S. aureus ATCC 25923 = assay: MIC, CLSI broth microdilution (Table 1); conditions: Staphylococcus aureus, ATCC25923; Gram positive; MHB, 37° C., 16-20 hours; read-out: MIC S. aureus ATCC 25923
[3] = tested on: S. aureus ATCC 43300 (MRSA, FQ-S); assay: MIC, CLSI broth microdilution (Table 1); conditions: Staphylococcus aureus; Gram positive; MHB, 37° C., 16-20 hours; read-out: MIC S. aureus ATCC 43300 (MRSA, FQ-S)
S. pneumonia ATCC 49619 = assay: MIC, CLSI broth microdilution (Table 1); conditions: Streptococcus pneumoniae, ATCC49619; Gram positive; MHB, 37° C., 16-20 hours; read-out: MIC S. pneumonia ATCC 49619
E. faecium ATCC 19434 = assay: MIC, CLSI broth microdilution (Table 1); conditions: Enterococcus faecium, ATCC19434; Gram positive; MHB, 37° C., 16-20 hours; read-out: MIC E. faecium ATCC 19434
P. aeruginosa ATCC 27853 = assay: MIC, CLSI broth microdilution (Table 2); conditions: Pseudomonas aeruginosa, ATCC27853; Gram negative; MHB, 37° C., 16-20 hours; read-out: MIC P. aeruginosa ATCC 27853
E. faecalis ATCC 29212 = assay: MIC, CLSI broth microdilution (Table 1); conditions: Enterococcus faecalis, ATCC29212; Gram positive; MHB, 37° C., 16-20 hours; read-out: MIC E. faecalis ATCC 29212

SMILES	MIC (A. baumannii ATCC 19606) [µg/mL]	MIC (K. pneumoniae ATCC 33495) [µg/mL]	MIC [1] [µg/mL]	MIC (H. influenzae ATCC 49247) [µg/mL]	MIC [2] [µg/mL]	MIC (E. coli ATCC 25922) [µg/mL]	MIC (S. aureus ATCC 25923) [µg/mL]	MIC [3] [µg/mL]	MIC (S. pneumonia ATCC 49619) [µg/mL]	MIC (E. faecium ATCC 19434) [µg/mL]	MIC (P. aeruginosa ATCC 27853) [µg/mL]	MIC (E. faecalis ATCC 29212) [µg/mL]
COc1ccc(-c2ccn3c(=O)c(C(=O)O)cc(C4CC4)c3c2C)cc1 [Example 47 K salt, 1-cyclopropyl-8-(4-methoxy-phenyl)-9-methyl-4-oxo-4H-quinolizine-3-carboxylic acid]	0.5	1 to 2	0.5	0.032	0.5 to 1	0.25	0.016	0.016	0.25	1	4	0.032 to 0.064
Cc1c(-c2cccc(N)c2)c(F)cn2c(=O)c(C(=O)O)cc(C3CC3)c12 [Example 4 K salt, 8-(3-amino-phenyl)-1-cyclopropyl-7-fluoro-9-methyl-4-oxo-4H-quinolizine-3-carboxylic acid]	0.125	0.25	0.25	0.008	0.25	0.125	0.016	0.016	0.125	1	8	0.032
Cc1c(-c2ccc(F)cc2)ccn2c(=O)c(C(=O)O)cc(C3CC3)c12 [Example 44 K salt, 1-cyclopropyl-8-(4-fluoro-phenyl)-9-methyl-4-oxo-4H-quinolizine-3-carboxylic acid]	0.125 to 0.25	0.25	0.25	0.008	0.5	0.125	0.016	0.016	0.25	0.5	2	0.064
Cc1c(-c2cc(F)c(N)cc2F)c(F)cn2c(=O)c(C(=O)O)cc(C3CC3)c12 [Example 38 K salt, 8-(4-amino-2,5-difluoro-phenyl)-1-cyclopropyl-7-fluoro-9-methyl-4-oxo-4H-quinolizine-3-carboxylic acid]	0.125	1 to 2	0.25	≤ 0.004	0.064	0.064 to 0.125	≤ 0.004	≤ 0.004	0.016	> 8	> 8	0.008 to 0.016
Cc1c(-c2ccc(C#N)c(F)c2)ccn2c(=O)c(C(=O)O)cc(C3CC3)c12 [Example 40 K salt, 8-(4-cyano-3-fluoro-phenyl)-1-cyclopropyl-9-methyl-4-oxo-4H-quinolizine-3-carboxylic acid]	0.25	0.5 to 1	0.25	0.016	0.5 to 1	0.125 to 0.25	0.016	0.016	0.125	2	> 8	0.064
COc1cc(-c2ccn3c(=O)c(C(=O)O)cc(C4CC4)c3c2C)ccc1N [Example 12 K salt, 8-(4-amino-3-methoxy-phenyl)-1-cyclopropyl-9-methyl-4-oxo-4H-quinolizine-3-carboxylic acid]	0.25 to 0.5	0.5	0.5	0.032	0.5 to 1	0.25	0.016 to 0.032	0.016	0.25	1	8	0.064
Cc1c(-c2ccc(N)cc2)ccn2c(=O)c(C(=O)O)cc(C3CC3)c12 [Example 18 K salt, 8-(4-amino-phenyl)-1-cyclopropyl-9-methyl-4-oxo-4H-quinolizine-3-carboxylic acid]	0.064	0.064 to 0.25	0.125	0.008	0.25	0.032	0.008	0.008	0.064	0.25	1	0.032
Cc1c(-c2ccc(N(C)C)cc2)ccn2c(=O)c(C(=O)O)cc(C3CC3)c12 [Example 25 K salt, 1-cyclopropyl-8-(4-(dimethylamino)-phenyl)-9-methyl-4-oxo-4H-quinolizine-3-carboxylic acid]	1	1	1	0.064	1	0.5	0.064	0.064	0.25	8	> 8	0.125
COc1c(N2C[C@@H]3CCCN[C@@H]3C2)c(F)cc2c(=O)c(C(=O)O)cn(C3CC3)c12 [Moxyfloxacin, reference compound]	0.5 (≈ 1.25 µM)	0.125 (≈ 0.311 µM)	0.125 (≈ 0.311 µM)	0.032 (≈ 0.0797 µM)	4 (≈ 9.96 µM)	0.032 (≈ 0.0797 µM)	0.064 (≈ 0.159 µM)	0.064 (≈ 0.159 µM)	0.125 (≈ 0.311 µM)	4 (≈ 9.96 µM)	2 (≈ 4.98 µM)	0.25 (≈ 0.623 µM)
Cc1c(-c2ccc(N)cc2F)ccn2c(=O)c(C(=O)O)cc(C3CC3)c12 [Example 7 K salt, 8-(4-amino-2-fluoro-phenyl)-1-cyclopropyl-9-methyl-4-oxo-4H-quinolizine-3-carboxylic acid]	0.125	0.125 to 0.25	0.25	0.008	0.25	0.064	0.008	0.008	0.032 to 0.064	0.5	4	0.032
Cc1c(-c2cccnc2)ccn2c(=O)c(C(=O)O)cc(C3CC3)c12 [Example 17 K salt, 1-cyclopropyl-9-methyl-4-oxo-8-(pyridin-3-yl)-4H-quinolizine-3-carboxylic acid]	0.125 to 0.25	0.125	0.25	≤ 0.004	1	0.064	0.016	0.016	0.125	1	2 to 4	0.064
Cc1c(N2CCNCC2)ccn2c(=O)c(C(=O)O)cc(C3CC3)c12 [Example 34 K salt, 1-cyclopropyl-9-methyl-4-oxo-8-piperazin-1-yl-quinolizine-3-carboxylic acid]	1	0.125 to 0.5	1	0.064	> 8	0.064	0.5	0.5	2	> 8	1	4
CNc1ccc(-c2ccn3c(=O)c(C(=O)O)cc(C4CC4)c3c2C)cc1 [Example 15 K salt, 1-cyclopropyl-9-methyl-8-(4-(methylamino)-phenyl)-4-oxo-4H-quinolizine-3-carboxylic acid]	0.5 to 1	1	0.5	0.016 to 0.032	1	0.125	0.016	0.016	0.064	> 8	> 8	0.032
Cc1c(-c2ccc(C(N)=O)cc2)ccn2c(=O)c(C(=O)O)cc(C3CC3)c12 [Example 36 K salt, 8-(4-carbamoyl-phenyl)-1-cyclopropyl-9-methyl-4-oxo-4H-quinolizine-3-carboxylic acid]	0.5	0.25	0.125	0.008	0.5	0.125	0.016 to 0.032	0.016	0.064	0.5	8	0.032
Cc1ccc(-c2ccn3c(=O)c(C(=O)O)cc(C4CC4)c3c2C)cc1 [Example 33 K salt, 1-cyclopropyl-8-(4-methyl-phenyl)-9-methyl-4-oxo-4H-quinolizine-3-carboxylic acid]	0.5	0.5 to 1	0.5	0.016 to 0.032	0.5	0.25	0.016 to 0.032	0.016	0.25	0.5 to 1	2	0.064
